Laboratory results taken from ChEMBL document CHEMBL1275488, “Extended-spectrum beta-lactamase production is associated with an increase in cell invasion and expression of fimbrial adhesins in Klebsiella pneumoniae” (2008).

tested on: Klebsiella pneumoniae; experiment: Antibacterial activity against extended-spectrum beta-lactamase-producing Klebsiella pneumoniae; format: functional

Structure (SMILES)	MIC [µg/mL]
CC(C)(O/N=C(\C(=O)N[C@@H]1C(=O)N2C(C(=O)[O-])=C(C[n+]3ccccc3)CS[C@H]12)c1csc(N)n1)C(=O)O [CEFTAZIDIME]	< 2
CO/N=C(\C(=O)N[C@@H]1C(=O)N2C(C(=O)O)=C(CSc3nc(=O)c(O)nn3C)CS[C@H]12)c1csc(N)n1 [CEFTRIAXONE]	< 2
CO/N=C(\C(=O)N[C@@H]1C(=O)N2C(C(=O)O)=C(COC(C)=O)CS[C@H]12)c1csc(N)n1 [CEFOTAXIME]	< 2
